Patent publication US8029764B2, “Methods for detection of colorectal cancer” (The Johns Hopkins University, priority 2001, dated 2011)

Test system: colorectal tissue transcripts
Experiment: SAGE of normal, adenoma and cancer colorectal tissue (transcript tag counts)
Design: species or system human
Conditions: for AD1 (SAGE tag count): SAGE library AD1; for AD2 (SAGE tag count): SAGE library AD2; for CA1 (SAGE tag count): SAGE library CA1; for CA2 (SAGE tag count): SAGE library CA2; for NC1 (SAGE tag count): SAGE library NC1; for NC2 (SAGE tag count): SAGE library NC2
Summary of the method: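 Tag counts reflect transcript abundance, each mRNA represented by a 15-base tag near its 3′ end. Excluding MHC tags, linkers and duplicate ditags, libraries were compared statistically: two each of normal epithelium, FAP-derived adenomas (>70% neoplastic) and carcinomas.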

Row | Sequence | AD1 (SAGE tag count) | AD2 (SAGE tag count) | CA1 (SAGE tag count) | CA2 (SAGE tag count) | NC1 (SAGE tag count) | NC2 (SAGE tag count)
1 | GCCGACCAGG (chemistry not fully specified) | 15 | 8 | 19 | 9 | 46 | 47
2 | GCCGGGTGGG (chemistry not fully specified) | 18 | 24 | 68 | 67 | 207 | 149
3 | GCCGTGGAGA (chemistry not fully specified) | 4 | 11 | 7 | 7 | 32 | 23
4 | GCCTGGCCAT (chemistry not fully specified) | 4 | 6 | 10 | 14 | 26 | 34
5 | GCGAAACCCT (chemistry not fully specified) | 123 | 43 | 64 | 98 | 167 | 565
6 | GCGAAACTCG (chemistry not fully specified) | 1 | 0 | 0 | 0 | 5 | 9
7 | GCGCAGAGGT (chemistry not fully specified) | 1 | 0 | 0 | 1 | 2 | 16
8 | GCTCTTCCCC (chemistry not fully specified; the letters are possibly those of the target site) | 1 | 2 | 2 | 0 | 9 | 21
9 | GCTGCCCTTG (chemistry not fully specified) | 13 | 6 | 6 | 18 | 44 | 6
10 | GCTGGCACAT (chemistry not fully specified) | 1 | 0 | 6 | 0 | 15 | 14
11 | GCTGGCCCCG (chemistry not fully specified) | 0 | 0 | 0 | 1 | 5 | 11
12 | GCTGTGCCTG (chemistry not fully specified) | 2 | 4 | 11 | 8 | 36 | 42
13 | GCTTGGGGAT (chemistry not fully specified) | 2 | 0 | 0 | 0 | 11 | 8
14 | GGAACAGGGG (chemistry not fully specified) | 1 | 0 | 0 | 2 | 1 | 13
15 | GGAACTGTGA (chemistry not fully specified) | 10 | 18 | 10 | 2 | 90 | 84
16 | GGAAGAGCAC (chemistry not fully specified) | 1 | 1 | 2 | 5 | 21 | 11
17 | GGAGGCCGAG (chemistry not fully specified) | 5 | 0 | 2 | 5 | 13 | 9
18 | GGAGGCGCTC (chemistry not fully specified) | 1 | 1 | 0 | 1 | 5 | 11
